{
  "source": "patent US6706663B2",
  "about": "“Herbicidal 3-heterocyclic substituted benzisothiazole and benzisoxazole compounds” (Wyeth, priority 2000, dated 2004)",
  "key": {"[1]": {"tested_on": "ABUTH (Abutilon theophrasti)", "experiment": "Preemergence herbicidal evaluation", "type": "in vivo, Medic.", "conditions": "preemergence, rated 4-5 weeks after treatment"}, "[2]": {"tested_on": "ABUTH (Abutilon theophrasti)", "experiment": "Postemergence herbicidal evaluation", "type": "in vivo, Medic.", "conditions": "postemergence", "procedure,_shortened": "(§1)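 Seedlings grown about two weeks in flats, sprayed, then kept under standard greenhouse care. Rated visually 4–5 weeks after treatment on a 0–9 scale (stand, vigour, malformation, size, chlorosis, overall appearance) relative to untreated control; repeat tests averaged.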"}, "[3]": {"tested_on": "GLXMAW (Soybean, Williams)", "experiment": "Preemergence herbicidal evaluation", "type": "in vivo, Glycine max, (L.) Merr. cv Williams", "conditions": "preemergence, rated 4-5 weeks after treatment"}, "[4]": {"tested_on": "ORYSAT (Rice, Tebonnet)", "experiment": "Flooded paddy, post-transplant rice tolerance", "type": "in vivo, Oryza sativa, (L.) Tebonnet", "conditions": "flooded paddy, post-transplant rice, rated 3-4 weeks after treatment, 0-9 rating scale", "procedure,_shortened": "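Seedlings aged ten days are transplanted in pairs into undrained pots of silt loam, which are then flooded to a depth of 1.5 to 3 cm. After herbicide application the pots are kept in a greenhouse with the flood maintained. Plants are rated 0-9 by visual comparison with controls.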"}, "[5]": {"tested_on": "GLXMAW (Soybean, Williams)", "experiment": "Postemergence herbicidal evaluation", "type": "in vivo, Glycine max, (L.) Merr. cv Williams", "conditions": "postemergence", "procedure,_shortened": "as §1"}, "[6]": {"tested_on": "SETVI (Setaria viridis)", "experiment": "Preemergence herbicidal evaluation", "type": "in vivo, (L.) Beau", "conditions": "preemergence, rated 4-5 weeks after treatment", "procedure,_shortened": "(§2)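 Applied before emergence as an aqueous acetone spray over seeded soil. Read-out: 0–9 visual rating covering plant stand, vigor, size, chlorosis, malformation and overall appearance compared with control, taken 4–5 weeks after spraying.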"}, "[7]": {"tested_on": "ECHCG (Echinochloa crus-galli)", "experiment": "Preemergence herbicidal evaluation", "type": "in vivo, (L.) Beau", "conditions": "preemergence, rated 4-5 weeks after treatment", "procedure,_shortened": "as §2"}, "[8]": {"tested_on": "CHEAL (Chenopodium album)", "experiment": "Preemergence herbicidal evaluation", "type": "in vivo, L.", "conditions": "preemergence, rated 4-5 weeks after treatment", "procedure,_shortened": "as §2"}, "[9]": {"tested_on": "CASOB (Cassia obtusifolia)", "experiment": "Preemergence herbicidal evaluation", "type": "in vivo, L.", "conditions": "preemergence, rated 4-5 weeks after treatment", "procedure,_shortened": "as §2"}, "[10]": {"tested_on": "AMBEL (Ambrosia artemisifolia)", "experiment": "Preemergence herbicidal evaluation", "type": "in vivo, L.", "conditions": "preemergence, rated 4-5 weeks after treatment", "procedure,_shortened": "as §2"}, "[11]": {"tested_on": "ZEAMX (Corn, Field)", "experiment": "Preemergence herbicidal evaluation", "type": "in vivo, Zea mays, L.", "conditions": "preemergence, rated 4-5 weeks after treatment"}, "[12]": {"tested_on": "IPOHE (Ipomoea hederacea)", "experiment": "Preemergence herbicidal evaluation", "type": "in vivo, (L.) Jacq.", "conditions": "preemergence, rated 4-5 weeks after treatment"}, "[13]": {"tested_on": "MOOVA (Monochoria vaginalis)", "experiment": "Flooded paddy, preemergence weed control", "type": "in vivo, Presl.", "conditions": "rated 3-4 weeks after treatment, 0-9 rating scale", "procedure,_shortened": "(§3)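 Visual 0-9 rating versus control, scoring stand, vigor, malformation, size, chlorosis and overall appearance. Silt loam soil, propagules in top 0.5 cm; flood depth 1.5–3 cm held for the whole test; greenhouse.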"}, "[14]": {"tested_on": "TRZAWR (Wheat, Winter, cv Riband)", "experiment": "Preemergence herbicidal evaluation", "type": "in vivo, Triticum aestivum", "conditions": "preemergence, rated 4-5 weeks after treatment", "procedure,_shortened": "as §2"}, "[15]": {"tested_on": "IPOHE (Ipomoea hederacea)", "experiment": "Postemergence herbicidal evaluation", "type": "in vivo, (L.) Jacq.", "conditions": "postemergence", "procedure,_shortened": "as §1"}, "[16]": {"tested_on": "ORYSAT (Rice, Tebonnet)", "experiment": "Postemergence herbicidal evaluation", "type": "in vivo, Oryza sativa, (L.) Tebonnet", "conditions": "postemergence", "procedure,_shortened": "as §1"}, "[17]": {"tested_on": "CHEAL (Chenopodium album)", "experiment": "Postemergence herbicidal evaluation", "type": "in vivo, L.", "conditions": "postemergence", "procedure,_shortened": "as §1"}, "[18]": {"tested_on": "CASOB (Cassia obtusifolia)", "experiment": "Postemergence herbicidal evaluation", "type": "in vivo, L.", "conditions": "postemergence", "procedure,_shortened": "as §1"}, "[19]": {"tested_on": "AMBEL (Ambrosia artemisifolia)", "experiment": "Postemergence herbicidal evaluation", "type": "in vivo, L.", "conditions": "postemergence", "procedure,_shortened": "as §1"}, "[20]": {"tested_on": "CYPIR (Cyperus iria)", "experiment": "Flooded paddy, preemergence weed control", "type": "in vivo", "conditions": "rated 3-4 weeks after treatment, 0-9 rating scale", "procedure,_shortened": "as §3"}},
  "data": [
    {"smiles": "CSCC1COC(c2nsc3ccc(-n4c(=O)cc(C(F)(F)F)n(C)c4=O)cc23)O1", "note": "(centres unmarked) [Compound 84, 1-methyl-3-[3-[4-[(methylthio)methyl]-1,3-dioxolan-2-yl]-1,2-benzisothiazol-5-yl]-6-(trifluoromethyl)uracil]", "values": [
      {"measurement": "Preemergence herbicidal rating ABUTH", "setting": "[1]; rate 0.0620 kg/ha", "result": 9.0},
      {"measurement": "Preemergence herbicidal rating ABUTH", "setting": "[1]; rate 0.1250 kg/ha", "result": 9.0},
      {"measurement": "Preemergence herbicidal rating ABUTH", "setting": "[1]; rate 0.2500 kg/ha", "result": 9.0},
      {"measurement": "ABUTH herbicidal rating", "setting": "[2]; rate 0.0320 kg/ha", "result": 9.0},
      {"measurement": "ABUTH herbicidal rating", "setting": "[2]; rate 0.0620 kg/ha", "result": 9.0},
      {"measurement": "ABUTH herbicidal rating", "setting": "[2]; rate 0.1250 kg/ha", "result": 9.0},
      {"measurement": "Preemergence herbicidal rating GLXMAW", "setting": "[3]; rate 0.0620 kg/ha", "result": 7.0},
      {"measurement": "Preemergence herbicidal rating GLXMAW", "setting": "[3]; rate 0.1250 kg/ha", "result": 9.0},
      {"measurement": "Preemergence herbicidal rating GLXMAW", "setting": "[3]; rate 0.2500 kg/ha", "result": 9.0},
      {"measurement": "herbicidal rating, ORYSAT (rice tolerance)", "setting": "[4]; rate 0.0080 kg/ha", "result": 0.0},
      {"measurement": "herbicidal rating, ORYSAT (rice tolerance)", "setting": "[4]; rate 0.0320 kg/ha", "result": 1.5},
      {"measurement": "herbicidal rating, ORYSAT (rice tolerance)", "setting": "[4]; rate 0.1250 kg/ha", "result": 5.5},
      {"measurement": "GLXMAW herbicidal rating", "setting": "[5]; rate 0.0320 kg/ha", "result": 8.5},
      {"measurement": "GLXMAW herbicidal rating", "setting": "[5]; rate 0.0620 kg/ha", "result": 9.0},
      {"measurement": "GLXMAW herbicidal rating", "setting": "[5]; rate 0.1250 kg/ha", "result": 9.0},
      {"measurement": "Preemergence herbicidal rating SETVI", "setting": "[6]; rate 0.0620 kg/ha", "result": 3.5},
      {"measurement": "Preemergence herbicidal rating SETVI", "setting": "[6]; rate 0.1250 kg/ha", "result": 7.5},
      {"measurement": "Preemergence herbicidal rating SETVI", "setting": "[6]; rate 0.2500 kg/ha", "result": 9.0},
      {"measurement": "Preemergence herbicidal rating ECHCG", "setting": "[7]; rate 0.0620 kg/ha", "result": 4.0},
      {"measurement": "Preemergence herbicidal rating ECHCG", "setting": "[7]; rate 0.1250 kg/ha", "result": 6.7},
      {"measurement": "Preemergence herbicidal rating ECHCG", "setting": "[7]; rate 0.2500 kg/ha", "result": 9.0},
      {"measurement": "Preemergence herbicidal rating CHEAL", "setting": "[8]; rate 0.0620 kg/ha", "result": 9.0},
      {"measurement": "Preemergence herbicidal rating CHEAL", "setting": "[8]; rate 0.1250 kg/ha", "result": 9.0},
      {"measurement": "Preemergence herbicidal rating CHEAL", "setting": "[8]; rate 0.2500 kg/ha", "result": 9.0},
      {"measurement": "Preemergence herbicidal rating CASOB", "setting": "[9]; rate 0.0620 kg/ha", "result": 4.0},
      {"measurement": "Preemergence herbicidal rating CASOB", "setting": "[9]; rate 0.1250 kg/ha", "result": 8.0},
      {"measurement": "Preemergence herbicidal rating CASOB", "setting": "[9]; rate 0.2500 kg/ha", "result": 9.0},
      {"measurement": "Preemergence herbicidal rating AMBEL", "setting": "[10]; rate 0.0620 kg/ha", "result": 9.0},
      {"measurement": "Preemergence herbicidal rating AMBEL", "setting": "[10]; rate 0.1250 kg/ha", "result": 9.0},
      {"measurement": "Preemergence herbicidal rating AMBEL", "setting": "[10]; rate 0.2500 kg/ha", "result": 9.0},
      {"measurement": "Preemergence herbicidal rating ZEAMX", "setting": "[11]; rate 0.0620 kg/ha", "result": 3.7},
      {"measurement": "Preemergence herbicidal rating ZEAMX", "setting": "[11]; rate 0.1250 kg/ha", "result": 6.3},
      {"measurement": "Preemergence herbicidal rating ZEAMX", "setting": "[11]; rate 0.2500 kg/ha", "result": 8.0},
      {"measurement": "Preemergence herbicidal rating IPOHE", "setting": "[12]; rate 0.0620 kg/ha", "result": 6.3},
      {"measurement": "Preemergence herbicidal rating IPOHE", "setting": "[12]; rate 0.1250 kg/ha", "result": 8.3},
      {"measurement": "Preemergence herbicidal rating IPOHE", "setting": "[12]; rate 0.2500 kg/ha", "result": 9.0},
      {"measurement": "herbicidal rating, MOOVA", "setting": "[13]; rate 0.0080 kg/ha", "result": 9.0},
      {"measurement": "herbicidal rating, MOOVA", "setting": "[13]; rate 0.0320 kg/ha", "result": 9.0},
      {"measurement": "herbicidal rating, MOOVA", "setting": "[13]; rate 0.1250 kg/ha", "result": 9.0},
      {"measurement": "Preemergence herbicidal rating TRZAWR", "setting": "[14]; rate 0.0620 kg/ha", "result": 2.0},
      {"measurement": "Preemergence herbicidal rating TRZAWR", "setting": "[14]; rate 0.1250 kg/ha", "result": 5.0},
      {"measurement": "IPOHE herbicidal rating", "setting": "[15]; rate 0.0320 kg/ha", "result": 9.0},
      {"measurement": "IPOHE herbicidal rating", "setting": "[15]; rate 0.0620 kg/ha", "result": 9.0},
      {"measurement": "IPOHE herbicidal rating", "setting": "[15]; rate 0.1250 kg/ha", "result": 9.0},
      {"measurement": "ORYSAT herbicidal rating", "setting": "[16]; rate 0.0320 kg/ha", "result": 5.3},
      {"measurement": "ORYSAT herbicidal rating", "setting": "[16]; rate 0.0620 kg/ha", "result": 6.5},
      {"measurement": "ORYSAT herbicidal rating", "setting": "[16]; rate 0.1250 kg/ha", "result": 9.0},
      {"measurement": "CHEAL herbicidal rating", "setting": "[17]; rate 0.0320 kg/ha", "result": 9.0},
      {"measurement": "CHEAL herbicidal rating", "setting": "[17]; rate 0.0620 kg/ha", "result": 9.0},
      {"measurement": "CHEAL herbicidal rating", "setting": "[17]; rate 0.1250 kg/ha", "result": 9.0},
      {"measurement": "CASOB herbicidal rating", "setting": "[18]; rate 0.0320 kg/ha", "result": 7.0},
      {"measurement": "CASOB herbicidal rating", "setting": "[18]; rate 0.0620 kg/ha", "result": 7.0},
      {"measurement": "CASOB herbicidal rating", "setting": "[18]; rate 0.1250 kg/ha", "result": 9.0},
      {"measurement": "AMBEL herbicidal rating", "setting": "[19]; rate 0.0320 kg/ha", "result": 7.5},
      {"measurement": "AMBEL herbicidal rating", "setting": "[19]; rate 0.0620 kg/ha", "result": 9.0},
      {"measurement": "AMBEL herbicidal rating", "setting": "[19]; rate 0.1250 kg/ha", "result": 9.0},
      {"measurement": "herbicidal rating, CYPIR", "setting": "[20]; rate 0.0080 kg/ha", "result": 0.0},
      {"measurement": "herbicidal rating, CYPIR", "setting": "[20]; rate 0.0320 kg/ha", "result": 1.5},
      {"measurement": "herbicidal rating, CYPIR", "setting": "[20]; rate 0.1250 kg/ha", "result": 6.0}
    ]}
  ]
}
